Tests used:
[1] = target: T1, Alpha-1D adrenergic receptor (Homo sapiens, UniProt P25100); format: cell membranes, HEK293, Membrane; settings: hek293; note: in other assays of this panel Not Active means under 50% inhibition at 10 µM
T1 sequence (P25100 whole entry): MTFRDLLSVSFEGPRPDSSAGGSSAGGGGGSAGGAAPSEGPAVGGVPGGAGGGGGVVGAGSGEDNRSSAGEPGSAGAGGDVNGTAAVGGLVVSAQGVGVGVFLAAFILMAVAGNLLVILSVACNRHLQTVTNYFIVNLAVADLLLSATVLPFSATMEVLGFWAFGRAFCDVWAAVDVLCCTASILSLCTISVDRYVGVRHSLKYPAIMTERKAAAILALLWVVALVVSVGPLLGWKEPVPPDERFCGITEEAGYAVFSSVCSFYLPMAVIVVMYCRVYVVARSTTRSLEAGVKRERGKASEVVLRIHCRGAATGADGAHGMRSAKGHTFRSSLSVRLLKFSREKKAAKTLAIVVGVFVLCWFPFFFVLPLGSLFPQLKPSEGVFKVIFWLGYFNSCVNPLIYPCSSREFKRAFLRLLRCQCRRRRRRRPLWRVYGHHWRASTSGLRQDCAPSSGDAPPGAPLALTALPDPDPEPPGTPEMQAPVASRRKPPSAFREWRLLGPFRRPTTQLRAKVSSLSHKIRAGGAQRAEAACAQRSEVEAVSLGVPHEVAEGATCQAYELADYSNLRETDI

Substance-P receptor = Substance-P receptor (Homo sapiens, UniProt P25103); format: cell membranes, Membrane; settings: cho; note: in other assays of this panel Not Active means under 50% inhibition at 10 µM
[2] = target: Beta-3 adrenergic receptor (Homo sapiens, UniProt P13945); test: DRUGMATRIX: Adrenergic beta3 radioligand binding (ligand: [125I] Cyanopindolol); format: cell membranes, HEK293, Membrane; settings: hek293; Not Active = under 50% inhibition at 10 µM
[3] = target: Sigma non-opioid intracellular receptor 1 (Homo sapiens, UniProt Q99720); test: DRUGMATRIX: Sigma1 radioligand binding (ligand: [3H] Haloperidol); format: cell membranes, Jurkat, Membrane; settings: jurkat; Not Active = under 50% inhibition at 10 µM
[4] = target: Epidermal growth factor receptor (Homo sapiens, UniProt P00533); test: DRUGMATRIX: Protein Tyrosine Kinase, EGF Receptor enzyme inhibition (substrate: Poly(Glu:Tyr)); format: cell-based, Insect cells; settings: insect cells; Not Active = under 50% inhibition at 10 µM
[5] = DRUGMATRIX: GABAA, Muscimol, Central radioligand binding (ligand: [3H] Muscimol); format: cell membranes, Rattus norvegicus, Wistar, Brain, Membrane; settings: Not Active = under 50% inhibition at 10 µM

Chain of Substance-P receptor (P25103 whole entry): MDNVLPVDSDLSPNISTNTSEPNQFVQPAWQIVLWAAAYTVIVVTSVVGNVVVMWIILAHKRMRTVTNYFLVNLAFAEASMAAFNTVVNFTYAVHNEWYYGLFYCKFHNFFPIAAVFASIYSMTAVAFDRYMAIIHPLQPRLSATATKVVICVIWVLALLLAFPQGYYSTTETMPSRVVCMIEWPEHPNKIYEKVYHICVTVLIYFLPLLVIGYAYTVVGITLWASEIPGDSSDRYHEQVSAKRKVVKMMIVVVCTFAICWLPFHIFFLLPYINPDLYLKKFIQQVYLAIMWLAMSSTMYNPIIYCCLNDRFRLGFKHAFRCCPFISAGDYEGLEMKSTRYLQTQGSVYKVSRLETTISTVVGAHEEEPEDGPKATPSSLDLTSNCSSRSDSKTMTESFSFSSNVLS
Chain of Beta-3 adrenergic receptor (P13945 whole entry): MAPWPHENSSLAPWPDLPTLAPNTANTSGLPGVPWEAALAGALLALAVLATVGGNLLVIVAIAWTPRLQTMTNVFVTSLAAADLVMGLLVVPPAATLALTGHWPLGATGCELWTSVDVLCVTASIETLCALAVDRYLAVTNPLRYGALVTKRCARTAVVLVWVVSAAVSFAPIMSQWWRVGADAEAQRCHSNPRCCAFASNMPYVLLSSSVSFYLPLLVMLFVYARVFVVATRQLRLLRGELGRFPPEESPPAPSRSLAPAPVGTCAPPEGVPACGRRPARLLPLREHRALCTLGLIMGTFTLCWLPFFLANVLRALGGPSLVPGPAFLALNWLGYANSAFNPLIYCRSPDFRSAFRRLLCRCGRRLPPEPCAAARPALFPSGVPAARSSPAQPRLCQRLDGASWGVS
Chain of Sigma non-opioid intracellular receptor 1 (Q99720 whole entry): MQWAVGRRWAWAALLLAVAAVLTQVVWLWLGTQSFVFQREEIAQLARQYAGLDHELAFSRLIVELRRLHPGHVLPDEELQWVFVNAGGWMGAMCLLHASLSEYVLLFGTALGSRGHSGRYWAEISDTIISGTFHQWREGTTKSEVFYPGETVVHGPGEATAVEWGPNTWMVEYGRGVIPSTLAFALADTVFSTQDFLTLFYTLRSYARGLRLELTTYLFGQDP

CC(Cl)(Cl)Cl [TRICHLOROETHANE]
Not Active: IC50 [1] | IC50 (Substance-P receptor) | IC50 [2] | IC50 [3] | IC50 [4] | IC50 [5] | Ki [5]

CN1C(=O)OC(C)(C)C1=O [TRIMETHADIONE]
Not Active: IC50 [1] | IC50 (Substance-P receptor) | IC50 [2] | IC50 [3] | IC50 [4] | IC50 [5] | Ki [5]

LEAD(IV) ACETATE
Not Active: IC50 [1] | Ki [1] | IC50 (Substance-P receptor) | Ki (Substance-P receptor) | IC50 [2] | Ki [2] | IC50 [3] | Ki [3] | IC50 [4] | Ki [4] | IC50 [5] | Ki [5]

Reference: ChEMBL document CHEMBL1909046, “DrugMatrix in vitro pharmacology data”
